The experiment deals with coenzyme-linked glucose dehydrogenase. As to the kind of experiment: Inhibitor test with 1,10-phenanthroline. The format is biochemical, Aspergillus terreus. On the procedure:
1.0 ml of 0.1 M potassium phosphate buffer (pH 7.0), 1.0 ml of 1.0 M D-glucose, 0.1 ml of 3 mM 2,6-dichlorophenolindophenol (hereinafter, referred to as DCIP), 0.2 ml of 3 mM 1-methoxy-5-methylphenazium methylsulfate, and 0.65 ml of water are placed in a 3 ml quartz cell (with an optical path length of 1 cm), and then the cell is placed in a spectrophotometer equipped with a thermostat cell holder. After the cell is incubated at 37° C. for five minutes, 0.05 ml of an enzyme liquid is added thereto, followed by measuring absorbance change (αABS/min) of DCIP at 600 nm. The mol-absorption coefficient of DCIP at pH 7.0 is defined to be 16.3×10^3 cm^−1M^−1. Since one unit of the enzyme activity is substantially equivalent to the enzyme activity that reduces 1 μmol of DCIP per minute, the enzyme activity is determined by absorbance change in accordance with the following formula. To the reaction system in the activity measurement method-1, 1,10-phenanthroline dissolved in methanol so that each final concentration was 1 mM, 5 mM, 10 mM, 25 mM, or 50 mM, was added, followed by measuring the activity of the purified enzymes 1 to 6 by the activity measurement method-1. […] As a control, methanol was added to the reaction system in the activity measurement method-1 at the final concentration of 10% (v/v), and then the activity was measured by the activity measurement method-1. […]

The structures appear in SMILES notation.

On to `c1cnc2c(c1)ccc1cccnc12` [1,10-phenanthroline], for which the inhibition ratio (1,10-phenanthroline at final concentration of 1 mM or more, purified enzymes 1 to 6, 10% (v/v) methanol) is recorded as at least 60%. The “inhibition of the activity by 1,10-phenanthroline” value (GLD according to the invention, general characteristics, concentration not given) is reported as “At least 60%”.

(Values after patent US9328372B2, “Coenzyme-linked glucose dehydrogenase and polynucleotide encoding the same” (Ikeda Food Research Co., Ltd., priority 2005, dated 2016).)
